# Experimental data: patent US5527820A, “Antibiotics having immunosuppressive activity, delaminomycins and processes for the production of the same” (priority 1992, dated 1996)
# Assays:
# [1] = system: delayed-type hypersensitivity (DTH); test: Suppressive effect on delayed-type hypersensitivity (DTH) in mouse, intraperitoneal; assay type: in vivo, mouse (CDF1); conditions: intraperitoneal once a day, 0-4th day
# Source text: Suppressive effect of delaminomycins on delayed-type hypersensitivity (DTH) in mouse
# CDF1 mice were immunized by intravenously injecting sheep red blood cells (10^5 cells/mouse). On the 4th day after the immunization, sheep red blood cells (10^8 cells/mouse) were subcutaneously injected into the footpad of mice for the elicitation to cause a delayed-type hypersensitivity (DTH). Test compound was intraperitoneally administered to the mice once a day from the 0th day to 4th day after the immunization. On the 5th day after the elicitation the thickness of the mouse footpad was measured to estimate the suppressive effect of the test compound on the DTH response. The suppressive effect of the test compound was evaluated in terms of the inhibition rate (%) as calculated according to the following equation:
# (§1) Inhibition rate (%)=100-(T/C×100)
# wherein T denotes the thickness of the footpad when administering the test compound, but C denotes the thickness of the footpad when administering no test compound.
# [2] = system: Trichophyton mentagrophytes F-15 (833); test: MIC, agar plate dilution method; assay type: cell-based; conditions: 27° C., 42 hours, nutrient agar containing glucose
# [3] = Absorption into the digestive tracts on oral administration; conditions: result in words
# Mouse leukemia P388D1 = test: Inhibitory activity on proliferation of cancer cells; assay type: cell-based
# Candida tropicalis F-1 = test: MIC, agar plate dilution method; assay type: cell-based; conditions: F1, 27° C., 42 hours, nutrient agar containing glucose
# Piricularia oryzae = test: microbe, parasite or virus in culture; assay type: cell-based; conditions: 42 h
# Xanthomonas citri = test: MIC, agar plate dilution method; assay type: cell-based; conditions: 27° C., 42 hours, nutrient agar containing glucose
# Description: (§2) Delaminomycins A, B, C, A2, B2 and C2 according to this invention further have an antibacterial activity against a variety of bacteria. The minimum growth inhibitory concentrations (MIC) (μg/ml) of the novel antibiotics of this invention on various bacteria and fungi as measured by the agar plate dilution method are shown in Table 5a, Table 5b, Table 5c and Table 5d below.
# (§3) Evaluated after culturing at 27° C. for 42 hours in nutrient agar
# (§4) medium containing glucose.
# Cochliobolus miyabeanus = test: MIC, agar plate dilution method; assay type: cell-based; conditions: Bipolaris oryzae; 27° C., 42 hours, nutrient agar containing glucose
# Description: as §2, §3, §4
# Candida Yu-1200 = test: MIC, agar plate dilution method; assay type: cell-based; conditions: YU1200, 27° C., 42 hours, nutrient agar containing glucose
# Solubility = conditions: result in words
# [4] = system: nylon wool-passed cells of spleen cells (responder cell; T cells); test: Inhibitory activity to the mixed lymphocyte culture reaction; assay type: cell-based, rat (Fischer F344 responder; WKY stimulator)
# Pellicularia sasakii = test: MIC, agar plate dilution method; assay type: cell-based; conditions: 27° C., 42 hours, nutrient agar containing glucose
# Candida krusei F-5 = test: MIC, agar plate dilution method; assay type: cell-based; conditions: Pichia kudriavzevii, F5; 27° C., 42 hours, nutrient agar containing glucose
# Mouse leukemia EL-4 = test: Inhibitory activity on proliferation of cancer cells; assay type: cell-based; conditions: EL4
# Mouse melanoma B-16 = test: as above; assay type: cell-based; conditions: B16
# [5] = system: Trichophyton asteroides 429; test: MIC, agar plate dilution method; assay type: cell-based; conditions: 27° C., 42 hours, nutrient agar containing glucose
# Human Lymphoma Jurkat = test: Inhibitory activity on proliferation of cancer cells; assay type: cell-based
# Mouse leukemia L-1210 = test: as above; assay type: cell-based; conditions: L1210
# Aspergillus niger F-16 = test: MIC, agar plate dilution method; assay type: cell-based; conditions: F16, 27° C., 42 hours, nutrient agar containing glucose
# [6] = system: Candida pseudotropicalis F-2; test: MIC, agar plate dilution method; assay type: cell-based; conditions: Kluyveromyces marxianus, F2; 27° C., 42 hours, nutrient agar containing glucose
# [7] = system: delayed-type hypersensitivity (DTH); test: Suppressive effect on delayed-type hypersensitivity (DTH) in mouse, oral; assay type: in vivo, mouse (CDF1); conditions: 2.0 mg/mouse, oral once a day, 0~4th day
# Description: CDF1 mice were immunized by intravenously injecting sheep red blood cells (10^5 cells/mouse). On the 4th day after the immunization, sheep red blood cells (10^8 cells/mouse) were subcutaneously injected into the footpad of mice for the elicitation to cause a delayed-type hypersensitivity. Test compound was orally administered to the mice once a day from the 0 th day to the 4 th day after the immunization. On the 5th day after the elicitation, the thickness of the mouse footpad was measured to estimate the suppressive effect of the test compound on DTH. The suppressive effect of the test compound was evaluated in terms of the inhibition rate (%) as calculated according to the following equation:
# as §1
# wherein T denotes the thickness of the footpad when the test compound was administered, but C denotes the thickness of the footpad when no test compounnd was administered.
# [8] = system: Saccharomyces cerevisiae F-7; test: MIC, agar plate dilution method; assay type: cell-based; conditions: F7, 27° C., 42 hours, nutrient agar containing glucose
# [9] = system: spleen cells (T cells activated by Concanavalin A); test: Inhibitory activity against blastogenesis and proliferation of spleen cells caused by mitogen (Con A); assay type: cell-based, mouse (CDF1)
# Candida albicans 3147 = test: MIC, agar plate dilution method; assay type: cell-based; conditions: 27° C., 42 hours, nutrient agar containing glucose
# [10] = system: Cryptococcus neoformans F-10; test: MIC, agar plate dilution method; assay type: cell-based; conditions: F10, 27° C., 42 hours, nutrient agar containing glucose
# Gram-positive bacteria = test: Antibacterial activity to Gram-positive bacteria; assay type: cell-based; conditions: result in words
# Source text: as §2
smiles,measurement,setting,value
CCC(O)C(C)/C=C/C=C/C1CC2C=CC3CC(C)CC(C)C3C2(C)C(=O)C12C(=O)NC(OC)C2=O (stereo not shown) [Delaminomycin B2],Inhibition rate (DTH footpad thickness),[1]; 15.6 μg/mouse,-3.3%
same,Inhibition rate (DTH footpad thickness),[1]; 62.5 μg/mouse,35.4%
same,Inhibition rate (DTH footpad thickness),[1]; 250 μg/mouse,36.2%
same,Inhibition rate (DTH footpad thickness),[1]; 1000 μg/mouse,51.3%
same,MIC,[2],> 100 µg/mL
same,absorption into the digestive tracts / oral absorption,[3],hardly absorbed into the digestive tracts
same,IC50,Mouse leukemia P388D1,12.1 µg/mL
same,MIC,Candida tropicalis F-1,> 100 µg/mL
same,MIC,Piricularia oryzae,> 100 µg/mL
same,MIC,Xanthomonas citri,> 100 µg/mL
same,MIC,Cochliobolus miyabeanus,> 100 µg/mL
same,MIC,Candida Yu-1200,> 100 µg/mL
same,Solubility,Solubility; various solvents,"soluble in methanol, ethyl acetate, chloroform and ethyl ether but slightly soluble or insoluble in n-hexane and water"
same,Solubility in water,Solubility; water,barely soluble in water
same,inhibition at 0.05 µg/mL,"[4]; Rattus norvegicus, T-cell, 0.05 μg/ml test compound, read-out: Inhibition rate",0%
same,inhibition at 0.2 µg/mL,"[4]; Rattus norvegicus, T-cell, 0.20 μg/ml test compound, read-out: Inhibition rate",12.3%
same,inhibition at 0.78 µg/mL,"[4]; Rattus norvegicus, T-cell, 0.78 μg/ml test compound, read-out: Inhibition rate",47.6%
same,inhibition at 3.1 µg/mL,"[4]; Rattus norvegicus, T-cell, 3.1 μg/ml test compound, read-out: Inhibition rate",92.7%
same,inhibition at 12.5 µg/mL,"[4]; Rattus norvegicus, T-cell, 12.5 μg/ml test compound, read-out: Inhibition rate",94.1%
same,inhibition at 50 µg/mL,"[4]; Rattus norvegicus, T-cell, 50 μg/ml test compound, read-out: Inhibition rate",96.7%
same,IC50,"[4]; Rattus norvegicus, T-cell, 120 hours, 3H-thymidine incorporation, read-out: IC50 (inhibition of mixed lymphocyte culture reaction)",8.6 µg/mL
same,activity to inhibit the proliferation of the T cells (responder cell) in mixed lymphocyte culture reaction,"[4]; in vitro, result in words",have an activity to inhibit the reaction of proliferation of the T cells
same,MIC,Pellicularia sasakii,> 50 µg/mL
same,MIC,Candida krusei F-5,> 100 µg/mL
same,IC50,Mouse leukemia EL-4,6.8 µg/mL
same,IC50,Mouse melanoma B-16,17.9 µg/mL
same,MIC,[5],> 100 µg/mL
same,IC50,Human Lymphoma Jurkat,11.4 µg/mL
same,IC50,Mouse leukemia L-1210,8 µg/mL
same,MIC,Aspergillus niger F-16,> 100 µg/mL
same,MIC,[6],> 100 µg/mL
same,Inhibition rate (DTH footpad thickness),[7],18.4%
same,MIC,[8],> 100 µg/mL
same,IC50,"[9]; Mus musculus, T-cell, read-out: IC50 (inhibition of blastogenesis and proliferation of spleen lymphocyte caused by Con A)",0.85 µg/mL
same,inhibition at 0.2 µg/mL,"[9]; Mus musculus, T-cell, 0.20 μg/ml test compound, read-out: Inhibition rate",12.3%
same,inhibition at 0.78 µg/mL,"[9]; Mus musculus, T-cell, 0.78 μg/ml test compound, read-out: Inhibition rate",47.6%
same,inhibition at 3.1 µg/mL,"[9]; Mus musculus, T-cell, 3.1 μg/ml test compound, read-out: Inhibition rate",92.7%
same,inhibition at 12.5 µg/mL,"[9]; Mus musculus, T-cell, 12.5 μg/ml test compound, read-out: Inhibition rate",94.1%
same,inhibition at 50 µg/mL,"[9]; Mus musculus, T-cell, 50 μg/ml test compound, read-out: Inhibition rate",96.7%
same,activity inhibitory to the reaction of proliferation of mouse spleen cells activated with Concanavalin A,"[9]; in vitro, result in words",exhibit an activity inhibitory to the reaction of proliferation of mouse spleen cells
same,MIC,Candida albicans 3147,> 100 µg/mL
same,MIC,[10],> 100 µg/mL
same,antibacterial activity to Gram-positive bacteria,Gram-positive bacteria,antibacterial activity to Gram-positive bacteria
